Experimental findings from patent EP2777394A1, “Agricultural adjuvant composition and process for its obtainment” (SC Teso Spec SRL, priority 2012, dated 2014) are described below.

Type in all cases: in vivo
The subject of data set [1] is leafminers flies, Liriomyza trifolii (Burgess). The data set can be described thus: Field test of spinosad with or without adjuvant A3 against leafminer larvae on muskmelon. Conditions: per sampled leaf, 3 days after treatment, acetamipirid 0.025%, spinosad 0.05%, adjuvant A3 0.4%. As for the experimental part:
Example 10. The effect of adjuvant A3, obtained according to Example 5, was tested to determine whether its addition improve the activity of spinosad against leafminers flies, Liriomyza trifolii (Burgess). Spinosad is a metabolite produced by biosynthetic process by the actinomycetes Saccharopolyspora spinosa, and provides excellent crop protection with a relatively low toxicity to non-target organisms, including many beneficial insects. For that reason spinosad is accepted on organic farming systems. […] Addition of the spraying adjuvant increase the efficacy of spinosad based insecticide in controlling leafminers larvae (Larson, 1997, Arthrop. Manag. Test. 22:415-416).
The experiment was done on the Fundulea experimental field, which characteristics were already presented in Example 6. The muskmelon (Cucumis melo L., cv. Charentais) experimental plots were established on 19th of April, 2012, using 25 days old transplants, on a density equivalent to 12.000 transplants per ha. The experimental filed where experiment was plotted was previously cultivated with corn and was fertilized with 200 kg/ha equivalent complex fertilizer NPK 15:15:15 (Azomure ? ), on beginning of March. Herbicidation was done by application on the whole surface of a dose of 4 l/ha Stomp 330 EC, sprayed in a mixture with 450 l water per ha, 10 days before transplantation, and incorporated in soil with a by harrowing with a disc harrow.
Plots of 20 m^2 were made with edges of two untreated rows, in random blocks, with 4 repetitions on each treatment. Application of treatments were done with a backpack sprayer SG10 (Stihl AG, Waiblingen, Germany), by spraying from 40 cm, with a spraying pressure set-up to 275 kPa, using a nozzle with flat jet and low drift (TeeJett® flat-fan TT11002 model, Spraying Systems Co., Wheaton, IL, USA). Were applied […], one in the phenophase of 3...4 leaves and in the phenophase 6...8 leaves, as a second treatment. In phenophase 3...4 leaves, one day after the treatment with insecticide, was applied also a treatment with Previcur 607 SL (propamocarb 607 g/l) for controlling the downy mildew (Pseudoperonospora cubensis), on the whole area of the experiment. The experimental treatments were: • V1 - control, untreated for Liriomyza trifolii; • V2 - acetamipirid 0.025% (Mospilan 20 SG, 200 g/kg acetamipirid, Nippon Soda Company, Tokio, Japonia), equivalent 0.1 kg/ha in a spraying norm of 400 l/ha, considered as standard for treatment of leafminers flies larvae because is a systemic insecticide; • V3 - spinosad 0.05% (Laser 240 SC, 240 g/l spinosad, Dow AgroSciences, Indianapolis, USA), equivalent 0.2 kg/ha at a spraying norm of 400 l/ha; • V4 - spinosad 0.05% (Laser 240 SC, 240 g/l spinosad, Dow AgroSciences, Indianapolis, USA), equivalent 0.2 kg/ha at a spraying norm of 400 l/ha + adjuvant A3, according to Example 5, 0.4%, equiv. to 1.6 kg at a spraying norm of 400 l/ha.
The impact of each treatment on leafminer larvae mortality was estimated by counting the number of live and dead / paralyzed larvae, and also of the empty and total mines per each sampled leaf. A total of 10 leaves per experimental plot were collected at 3 days after treatment and examined in the laboratory for presence of mines in leaves and larvae status in the mines. The data were processed by analysis of variance (Statistica 10, StatSoft). Tab. 11.The influence of spray adjuvant A3 on the efficacy of spinosad in controlling the leafminers larvae on muskmelon.

In data set [2] the test system is winter wheat (Triticum aestivum L.), cultivar Capo. The data set is described as follows: Selenium biofortification of wheat grains by foliar sodium selenite, with or without adjuvant A1.2 (field experiment). The note with it: 300 l/ha; for Selenium content in the wheat grains (mcg/kg): applied at GS31; for Yield (kg/ha): yield with 86% dry matter. The text has this:
Example 7. On the experimental field from Fundulea was done also an experiment in order to establish the effect of adjuvant A1.2 on the biofortification treatment with sodium selenite applied as foliar fertilizers on wheat. Se (IV) from the sodium selenite is a selenium species which are not translocated from the radicular system into the foliar one through xylem (Zhu et al., 2009, Trends Plant Sci. 14:436-442), thus an eventually biofortification of the wheat yield resulted from the treatment with selenite is the result of the selenite absorbed through cuticle and not of that absorbed by radicular system after leakage on soil. The soil on which was done the experiment has the characteristics presented in the above tab. 6, and the total selenium content (HF + HNO3 + HCl) is 0.197 mg/kg.
The experiment was done of experimental plots of 25 m^2, with winter wheat (Triticum aestivum L.), cultivar Capo, cultivated in similar conditions with those already presented in Example 6 regarding the agrotechnics, base fertilization before seeding and crop protection. The experiment was done in random blocks in a Latin square, 4 treatments in 4 repetitions. The 4 treatments were: • V1 - control, treated with water, • V2 - sprayed with a solution of sodium selenite pentahidrate, Na2SeO3.5 H2O, 0.0111%, equiv. 10 g Se/ha for a spraying norm of 300 l/ha; • V3 - sprayed with a solution of sodium selenite pentahidrate, Na2SeO3.5 H2O, 0.0222%, equiv. 20 g Se/ha for a spraying norm of 300 l/ha; • V4 - sprayed with a solution of sodium selenite pentahidrate, Na2SeO3.5 H2O, 0.0111 %, equiv. 10 g Se/ha for a spraying norm of 300 l/ha and 0.5% spraying adjuvant A1.2 Ex.2, equivalent to a dose of 1.5 kg/ha.
Application of the solutions was done with a backpack sprayer SG10 (Stihl AG, Waiblingen, Germany), by spraying from 40 cm, with a spraying pressure set-up to 275 kPa, using a nozzle with flat jet and low drift (TeeJett® flat-fan TT11002 model, Spraying Systems Co., Wheaton, IL, USA). The treatments were applied during the growth stages GS31 (5th April 2012). On the end of the vegetation season each repetition was separately harvested, the realized production being expressed in kg/ha with 86% dry matter. In the wheat grain selenium was determined, by atomic absorption spectrophotometry with hydride generation (Tinggi et al., 1992, J. Food Comp. Anal. 5, 269-280). The date were analyzed by application of the linear general model, to determine the average values and the significance differences at a probability level of 5% (Statistica 10, StatSoft, Tulsa, OK, US). Tab. 8. Influence of the adjuvant A1.2 done according to the invention on the biofortification treatment of wheat grains (cv. Capo) with selenium.

For data set [3], the system named is Tomato plants (Lycopersicum esculentum cv. Cristal F1). The data set is described as follows: Protection of tomato plants against water stress by foliar glycine-betaine, with or without adjuvant A2 (greenhouse). The procedure:
Example 9. It was tested the efficacy of adjuvant A2, obtained according to Ex.4 on the performances of glycine-betaine, compound with an osmoprotectant action, regarding the protection of tomato plants against water stress. Glycine - betaine presents a molecule with quaternary nitrogen, strongly polar, with a reduced penetrability on the hydrophobic plant cuticle.
Tomato plants (Lycopersicum esculentum cv. Cristal F1), transplants of 60 days, were re-potted in vegetation pots of 25 cm dia. and 50 cm height, on which was introduced a synthetic grown substrate enriched with nutrients for the first week of plant growth (Canna Terra Professional Plus, Canna International BV). The vegetation pots were maintained in greenhouse conditions, at 22±2°C during the day and 17±2°C during the night, with a photoperiod of 12 hours, supplemented with light with an intensity of 160 µE/m^2/s, from a metal halide lamp, when the light intensity was below 500 µE/m^2/s. […] The grown substrate contained initial nutrient reserves, thus the plants were fertilized only one time, at 28 days after transplantation, by the application of 100 ml of nutritive solution 1 g/l of fertilizer 20 - 8 - 20 (N-P2O5-K2O, Eurofertil, TimacAgro Romania). The experiment was organized in a random bloc with 4 repetitions for each treatment, each repetition including 5 plants. It was used purified glycine-betaine (99%, Sigma Aldrich, St. Louis, Mo, US). The experimental treatments included also controls, sprayed only with water, water stress control and unstressed control. These experimental treatments were: • V1 - control unstressed, sprayed with water; 2 treatments x 2 ml per plant, equivalent 100 l/ha; • V2 - control water stressed, sprayed with water; 2 treatments x 2 ml per plant, equivalent 100 l/ha; • V3 - water stressed, sprayed with glycine-betaine; 2 treatments x 2 ml 5 mM per plant, equivalent 58,5 g in 100l/ha; […]; […]; • V5 - water stressed, sprayed with glycine -betaine and adjuvant, 2 treatments x 2 ml solution 5 mM betaine + 1% adjuvant A2 per plant, equivalent 58,5 g betaine and 1 kg adjuvant A2 in 100l/ha.
Treatments were applied in the 2nd and 29th day after transplantation, by spraying each plant with the help of a glass atomizer with metal top and plastisol bulb (model 15-RD, DeVilbiss Healthcare, Somerset, PA, USA). The unstressed control was irrigated once every five day at 100% field capacity, and the water stressed plants were irrigated each two weeks at 100% field capacity. […] The data were processed by analysis of variance (Statistica 10, StatSoft).

Setting [4] is: V3 water stressed, 2x 5 mM equiv. 58,5 g in 100 l/ha.
The mark [5] stands for this setting: V3 water stressed, 2x 5 mM equiv. 58,5 g in 100 l/ha, 8 weeks after transplantation.

As for `C/C(=N\C#N)N(C)Cc1ccc(Cl)nc1` [Acetamipirid, acetamipirid], in data set [1] (First treatment), the Dead larvae amounted to 0.1c, the Empty mines was 0c, the Mines total came to 0.4a and the “Mines with live larvae” value is listed as 0.1c. For the same compound, in data set [1] (Second treatment), the Dead larvae turned out to be 0.3c, the Empty mines worked out at 0b, the Mines total came out at 0.2a and the “Mines with live larvae” value was determined as 0b.

Turning to `O=[Se](O)O` [Na2SeO3.5 H2O, sodium selenite pentahidrate], the “Selenium content in the wheat grains (mcg/kg)” value in data set [2] (equiv. 10 g Se/ha) is 105b mcg/kg; in data set [2] (equiv. 20 g Se/ha) it was 142a mcg/kg. The “Yield (kg/ha)” value in data set [2] (equiv. 10 g Se/ha) is 4958a kg/ha; in data set [2] (equiv. 20 g Se/ha) it was 4549b kg/ha.

Consider `C[N+](C)(C)CC(=O)O` [glycine-betaine], for which the “Leaves surfaces (mm^2)” value in data set [3] (setting [4]) was 587.58±4.92ab mm^2; in data set [3] (V4 water stressed, 2x 5 mM equiv. 117 g in 100 l/ha), 663.16±5.84a mm^2. Further, the “Number of Leaves” value in data set [3] (setting [4]) is 28.00±2.1b. Also, in data set [3] (setting [5]), the “Plant height (cm)” value is recorded as 47.30±3.42c cm. For the same compound, the “Root length (cm)” value in data set [3] (setting [5]) turned out to be 45.50±2.39b cm; in data set [3] (V4 water stressed, 2x 5 mM equiv. 117 g in 100 l/ha, 8 weeks after transplantation) it was 54.80±1.88b cm. Moreover, the “Average yield** (g ripened fruits / plant)” value in data set [3] (V3 water stressed, 2x 5 mM equiv. 58,5 g in 100 l/ha, production for 30 days cycle of flowering - fructification) is listed as 223±28.2b g ripened fruits / plant.

For the compound spinosad, in data set [1] (First treatment), the Dead larvae was 1.8b, the Empty mines turned out to be 3.3b, the Mines total is 8.2b and the “Mines with live larvae” value was found to be 1.2b. In data set [1] (Second treatment), the Dead larvae came to 3.1a, the Empty mines was 2.7a, the Mines total was found to be 6.8b and the “Mines with live larvae” value is reported as 0.3a.
